≈ marks a conversion by molar mass, not a printed value.
Key:
Test in all cases: in vitro antibacterial evaluation, MIC by broth dilution
Assay type in all cases: cell-based
[1] = test system: Escherichia coli; conditions: 18 hours at 35° C.
[2] = test system: Streptococcus sp.; conditions: broth dilution, 18 hours at 35° C.
Outline: (§1)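 Broth dilution per NCCLS M7-A2 in Mueller-Hinton II medium, inoculum 5×10^5 CFU/mL, antibiotic range 64-0.06 μg/mL. MIC taken as lowest concentration inhibiting growth; Gram-positive panel includes recent clinical isolates resistant to methicillin, penicillin and/or vancomycin.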

[3] = test system: Enterococcus sp.; conditions: broth dilution, 18 hours at 35° C.
Outline: as §1

[4] = test system: Staphylococcus sp.; conditions: broth dilution, 18 hours at 35° C.
Outline: as §1

MIC Escherichia coli (ATCC 25922) [1]: 64 µg/mL (≈ 42.3 µM)
MIC Escherichia coli (GC 4559) [1]: >64 µg/mL
MIC Escherichia coli (GC 4560) [1]: 8 µg/mL (≈ 5.29 µM)
MIC Streptococcus agalactiae (GC 4564) [2]: 0.25 µg/mL (≈ 0.165 µM)
MIC Streptococcus pneumoniae (ATCC 6301) [2]: 0.12 µg/mL (≈ 0.0794 µM)
MIC Streptococcus pneumoniae (GC 1894) [2]: <0.06 µg/mL
MIC Streptococcus pneumoniae (GC 4565) [2]: 0.12 µg/mL (≈ 0.0794 µM)
MIC Streptococcus pyogenes (GC 4563) [2]: 0.5 µg/mL (≈ 0.331 µM)
MIC Streptococcus pneumoniae (ATCC 6301) ([2]; inoculum 5×10^5 CFU/mL, strain ATCC 6301): 0.12 µg/mL (≈ 0.0794 µM)
MIC Streptococcus pneumoniae (GC 1894) ([2]; inoculum 5×10^5 CFU/mL, strain GC 1894): <0.06 µg/mL
MIC Streptococcus pyogenes (GC 4563) ([2]; inoculum 5×10^5 CFU/mL, strain GC 4563): 0.5 µg/mL (≈ 0.331 µM)
MIC Streptococcus agalactiae (GC 4564) ([2]; inoculum 5×10^5 CFU/mL, strain GC 4564): 0.25 µg/mL (≈ 0.165 µM)
MIC Streptococcus pneumoniae (GC 4565) ([2]; inoculum 5×10^5 CFU/mL, strain GC 4565): 0.12 µg/mL (≈ 0.0794 µM)
MIC Enterococcus avium (GC 4558) [3]: 4 µg/mL (≈ 2.65 µM)
MIC Enterococcus faecalis (ATCC 29212) [3]: 4 µg/mL (≈ 2.65 µM)
MIC Enterococcus faecalis (GC 2242) [3]: 4 µg/mL (≈ 2.65 µM)
MIC Enterococcus faecalis (GC 2691) [3]: 4 µg/mL (≈ 2.65 µM)
MIC Enterococcus faecalis (GC 3059) [3]: 4 µg/mL (≈ 2.65 µM)
MIC Enterococcus faecalis (GC 4552) [3]: 4 µg/mL (≈ 2.65 µM)
MIC Enterococcus faecalis (GC 4553) [3]: 4 µg/mL (≈ 2.65 µM)
MIC Enterococcus faecalis (GC 4554) [3]: 4 µg/mL (≈ 2.65 µM)
MIC Enterococcus faecalis (GC 6189) [3]: 4 µg/mL (≈ 2.65 µM)
MIC Enterococcus faecium (GC 2243) [3]: 4 µg/mL (≈ 2.65 µM)
MIC Enterococcus faecium (GC 4556) [3]: 4 µg/mL (≈ 2.65 µM)
MIC Enterococcus faecium (GC 4557) [3]: 4 µg/mL (≈ 2.65 µM)
MIC Enterococcus faecalis (ATCC 29212) ([3]; inoculum 5×10^5 CFU/mL, strain ATCC 29212): 4 µg/mL (≈ 2.65 µM)
MIC Enterococcus faecalis (GC 2242) ([3]; inoculum 5×10^5 CFU/mL, strain GC 2242): 4 µg/mL (≈ 2.65 µM)
MIC Enterococcus faecium (GC 2243) ([3]; inoculum 5×10^5 CFU/mL, strain GC 2243): 4 µg/mL (≈ 2.65 µM)
MIC Enterococcus faecalis (GC 2691) ([3]; inoculum 5×10^5 CFU/mL, strain GC 2691): 4 µg/mL (≈ 2.65 µM)
MIC Enterococcus faecalis (GC 3059) ([3]; inoculum 5×10^5 CFU/mL, strain GC 3059): 4 µg/mL (≈ 2.65 µM)
MIC Enterococcus faecalis (GC 4552) ([3]; inoculum 5×10^5 CFU/mL, strain GC 4552): 4 µg/mL (≈ 2.65 µM)
MIC Enterococcus faecalis (GC 4553) ([3]; inoculum 5×10^5 CFU/mL, strain GC 4553): 4 µg/mL (≈ 2.65 µM)
MIC Enterococcus faecalis (GC 4554) ([3]; inoculum 5×10^5 CFU/mL, strain GC 4554): 4 µg/mL (≈ 2.65 µM)
MIC Enterococcus faecium (GC 4556) ([3]; inoculum 5×10^5 CFU/mL, strain GC 4556): 4 µg/mL (≈ 2.65 µM)
MIC Enterococcus faecium (GC 4557) ([3]; inoculum 5×10^5 CFU/mL, strain GC 4557): 4 µg/mL (≈ 2.65 µM)
MIC Enterococcus avium (GC 4558) ([3]; inoculum 5×10^5 CFU/mL, strain GC 4558): 4 µg/mL (≈ 2.65 µM)
MIC Enterococcus faecalis (GC 6189) ([3]; inoculum 5×10^5 CFU/mL, strain GC 6189): 4 µg/mL (≈ 2.65 µM)
MIC Staphylococcus aureus (ATCC 29213) ([4]; strain ATCC 29213): 4 µg/mL (≈ 2.65 µM)
MIC Staphylococcus aureus (GC 1131) ([4]; strain GC 1131): 4 µg/mL (≈ 2.65 µM)
MIC Staphylococcus aureus (GC 3051) ([4]; strain GC 3051): 4 µg/mL (≈ 2.65 µM)
MIC Staphylococcus aureus (GC 3053) ([4]; strain GC 3053): 4 µg/mL (≈ 2.65 µM)
MIC Staphylococcus aureus (GC 4541) ([4]; strain GC 4541): 4 µg/mL (≈ 2.65 µM)
MIC Staphylococcus aureus (GC 4542) ([4]; strain GC 4542): 4 µg/mL (≈ 2.65 µM)
MIC Staphylococcus aureus-SMITH (GC 4543) ([4]; strain GC 4543): 4 µg/mL (≈ 2.65 µM)
MIC Staphylococcus aureus (GC 4544) ([4]; strain GC 4544): 4 µg/mL (≈ 2.65 µM)
MIC Staphylococcus aureus (GC 4545) ([4]; strain GC 4545): 4 µg/mL (≈ 2.65 µM)
MIC Coagulase Negative Staphylococcus (GC 4547) ([4]; strain GC 4547): 4 µg/mL (≈ 2.65 µM)
MIC Coagulase Negative Staphylococcus (GC 4548) ([4]; strain GC 4548): 4 µg/mL (≈ 2.65 µM)
MIC Coagulase Negative Staphylococcus (GC 4549) ([4]; strain GC 4549): 4 µg/mL (≈ 2.65 µM)
MIC Coagulase Negative Staphylococcus (GC 4551) ([4]; strain GC 4551): 8 µg/mL (≈ 5.29 µM)
MIC Coagulase Negative Staphylococcus (GC 6257) ([4]; strain GC 6257): 4 µg/mL (≈ 2.65 µM)
Compound: CC(C)CC(=O)OC1C(O)C(OC2C(CO)OC(Oc3ccc(CC4NC(=O)C(C(C)c5ccccc5)NC(=O)CNC(=O)C(CO)NC(=O)C(C(O)C5CNC(=N)N5C5OC(CO)C(O)C(O)C5O)NC(=O)C(C(O)C5CNC(=N)N5)NC4=O)cc3)C(O)C2O)OC2COC3(OC21)C1CC2CC(C1)CC3C2 (stereo not shown) [Example 218]
MIC Staphylococcus haemolyticus (GC 4546) ([4]; strain GC 4546): 4 µg/mL (≈ 2.65 µM)

Reference: US6914045B2, “Glycopeptide antibiotics” (Wyeth Holdings Corporation, priority 2001, dated 2005)
